One data set concerns Bacillus subtilis. In words: Bacterial minimal inhibiting concentration (MIC) in liquid culture, turbidity evaluation. It is filed as cell-based. As to conditions: strain A: Bacillus subtilis; Caso Peptone Bouillon, 24 hours at 30 °C; tested at 10, 30, 60 and 100 mg/l.
The test system of a further data set is Serratia marcescens. The description is as above. Type of data set: cell-based. As to conditions: strain B: Serratia marcescens; Caso Peptone Bouillon, 24 hours at 30 °C; tested at 10, 30, 60 and 100 mg/l.
The next data set relates to Enterobacter aerogenes. The description is as above. It is filed as cell-based. As to conditions: strain C: Enterobacter aerogenes, Caso Peptone Bouillon, 24 hours at 30 °C, tested at 10, 30, 60 and 100 mg/l.
In another data set the test system is Alcaligenes dentrificans. Described as above. It is filed as cell-based. The following applies: strain D: Alcaligenes dentrificans; Caso Peptone Bouillon, 24 hours at 30 °C; tested at 10, 30, 60 and 100 mg/l.
The test system of another data set is Proteus vulgaris. The data set is described as above. As to conditions: strain E: Proteus vulgaris; Caso Peptone Bouillon, 24 hours at 30 °C; tested at 10, 30, 60 and 100 mg/l. Type of data set: cell-based.
The test system of a further data set is Pseudomonas fluorescens. The data set is described as above. Type of data set: cell-based. As to conditions: strain F: Pseudomonas fluorescens; Caso Peptone Bouillon, 24 hours at 30 °C; tested at 10, 30, 60 and 100 mg/l.
For the next data set, the system named is bacterial mixed culture. Type of data set: cell-based. The following applies: 24 hours at 30 °C in Tyrode solution, growth on Caso Peptone plates; for Effect after 24 h 10: 10 mg/l; for Effect after 24 h 30: 30 mg/l; for Effect after 24 h 60: 60 mg/l.
The nature of data set [1]: Solubility of the isolated product (water, alcohol). It is filed as physicochemical.

In the case of `CCCCCCCCCCCCCC[P+](CCCC)(CCCC)CCCC` [Example 2, [(n-C4H9)3P n-C14H29]^+HSO4-], the MIC – broadly, the least concentration at which growth counts as inhibited – against Bacillus subtilis amounted to 10 mg/L; in the data set on Serratia marcescens, 30 mg/L; in the data set on Alcaligenes dentrificans, 10 mg/L; against Proteus vulgaris it was 10 mg/L; in the data set with Pseudomonas fluorescens it was 30 mg/L. Further, in the data set on Enterobacter aerogenes, the “minimal inhibiting concentration C” value is 10 mg/L. For the same compound, the “Effect after 24 h 10” value with bacterial mixed culture was “-”. Moreover, the “Effect after 24 h 30” value in the data set with bacterial mixed culture is “-”. Moreover, the “Effect after 24 h 60” value in the data set with bacterial mixed culture is reported as “-”. Further, the “solubility in water” value in data set [1] is recorded as “optionally miscible with water”.
With `CCCCCCCCCCCCCC[P+](CCCC)(CCCC)CCCC` [Example 3, [(n-C4H9)3P n-C14H29]^+NO3^-], the “minimal inhibiting concentration A” value with Bacillus subtilis was determined as 10 mg/L. Also, the “minimal inhibiting concentration B” value with Serratia marcescens is 30 mg/L. Moreover, the “minimal inhibiting concentration C” value with Enterobacter aerogenes amounted to 10 mg/L. The “minimal inhibiting concentration D” value with Alcaligenes dentrificans amounted to 10 mg/L. Further, the “minimal inhibiting concentration E” value in the data set on Proteus vulgaris worked out at 10 mg/L. The “minimal inhibiting concentration F” value with Pseudomonas fluorescens is 30 mg/L. Further, in the data set on bacterial mixed culture, the “Effect after 24 h 10” value is listed as “(-) (1-10 colonies, bacteria killed for the most part)”; the “Effect after 24 h 30” value was “(-) (1-10 colonies, bacteria killed for the most part)”; the “Effect after 24 h 60” value is reported as “-”; the “Effect after 24 h 100 mg/l” value is recorded as “-”. For the same compound, the “solubility in alcohol” value in data set [1] (alcohol) is “readily soluble in alcohol”. Besides, in data set [1], the “solubility in water” value was “difficultly soluble in water”.
Regarding `CCCCCCCCCCCCCC[N+](C)(C)Cc1ccccc1` [Example 5, [(CH3)2N(CH2C6H5)n-C14H29]^+[S2P(O^iC3H7)2]^-], the minimal inhibitory concentration (MIC) against Bacillus subtilis is below 100 mg/L; in the data set with Serratia marcescens it was below 100 mg/L; in the data set on Enterobacter aerogenes (Klebsiella aerogenes, 24 h) it was below 100 mg/L; in the data set on Alcaligenes dentrificans it was below 100 mg/L; with Proteus vulgaris, below 100 mg/L; against Pseudomonas fluorescens, below 100 mg/L. Besides, the “Effect after 24 h 30” value with bacterial mixed culture is given as “(-) (1-10 colonies, bacteria killed for the most part)”. Moreover, in the data set on bacterial mixed culture, the “Effect after 24 h 60” value is listed as “-”. Further, the “Effect after 24 h 100 mg/l” value in the data set on bacterial mixed culture is “-”. The “solubility in water” value in data set [1] is “difficultly soluble in water”.
On to `CCCCCCCCCCCCCC[P+](CCCC)(CCCC)CCCC` [Example 6, ([n-C4H9)3P n-C14H29]^+[B(C6H5)4]^-], for which the solubility (as a rule, the concentration that dissolves in the medium under given conditions) in data set [1] (in water) is at most 0.02 mg/mL.
On to `CCCCCCCCCCCCCC[P+](CCCC)(CCCC)CCCC` [Example 7, [(n-C4H9)3P n-C14H29]^+[lO4]^-], for which the “minimal inhibiting concentration A” value in the data set with Bacillus subtilis turned out to be 10 mg/L. Also, in the data set with Serratia marcescens, the “minimal inhibiting concentration B” value came out at 30 mg/L. For the same compound, the “minimal inhibiting concentration C” value in the data set with Enterobacter aerogenes worked out at 30 mg/L. The “minimal inhibiting concentration D” value with Alcaligenes dentrificans amounted to 10 mg/L. Besides, the “minimal inhibiting concentration E” value with Proteus vulgaris was 10 mg/L. The “minimal inhibiting concentration F” value with Pseudomonas fluorescens was 30 mg/L. In addition, in the data set on bacterial mixed culture, the “Effect after 24 h 10” value was “(-) (1-10 colonies, bacteria killed for the most part)”; the “Effect after 24 h 30” value is reported as “-”; the “Effect after 24 h 60” value is reported as “-”; the “Effect after 24 h 100 mg/l” value is given as “-”. For the same compound, the “solubility in water” value in data set [1] is on record as “difficultly soluble in water”.
Regarding “[(CH3)2N(CH2C6H5) n-C14H29]3^+[Fe(CN)6]^3- [Example 4]”, the “minimal inhibiting concentration A” value in the data set with Bacillus subtilis was below 100 mg/L. Moreover, the “minimal inhibiting concentration B” value in the data set with Serratia marcescens is below 100 mg/L. Also, in the data set on Enterobacter aerogenes, the “minimal inhibiting concentration C” value was below 100 mg/L. In addition, the “minimal inhibiting concentration D” value in the data set with Alcaligenes dentrificans was below 100 mg/L. Besides, the “minimal inhibiting concentration E” value with Proteus vulgaris was below 100 mg/L. The “minimal inhibiting concentration F” value in the data set on Pseudomonas fluorescens is below 100 mg/L.
For “[(n-C4H9)3P n-C14H29]^+(ICIBr]^- [Example 9]”, in the data set on Bacillus subtilis, the “minimal inhibiting concentration A” value is 10 mg/L. Also, in the data set on Serratia marcescens, the “minimal inhibiting concentration B” value came to 30 mg/L. In addition, in the data set with Enterobacter aerogenes, the “minimal inhibiting concentration C” value stood at 30 mg/L. Besides, the “minimal inhibiting concentration D” value in the data set on Alcaligenes dentrificans turned out to be 10 mg/L. For the same compound, the “minimal inhibiting concentration E” value in the data set on Proteus vulgaris came to 10 mg/L. Besides, in the data set on Pseudomonas fluorescens, the “minimal inhibiting concentration F” value was found to be 30 mg/L. Also, in the data set with bacterial mixed culture, the “Effect after 24 h 10” value was “-”, the “Effect after 24 h 30” value is on record as “-” and the “Effect after 24 h 60” value is recorded as “-”.
For the compound “[(n-C4H9)3P n-C, 4H29]^+[ICI2]^- [Example 8]”, the “minimal inhibiting concentration A” value in the data set on Bacillus subtilis is 10 mg/L. Moreover, in the data set with Serratia marcescens, the “minimal inhibiting concentration B” value stood at 30 mg/L. Further, in the data set with Enterobacter aerogenes, the “minimal inhibiting concentration C” value came to 30 mg/L. Further, the “minimal inhibiting concentration D” value in the data set on Alcaligenes dentrificans was found to be 10 mg/L. The “minimal inhibiting concentration E” value in the data set with Proteus vulgaris was determined as 10 mg/L. The “minimal inhibiting concentration F” value in the data set on Pseudomonas fluorescens was determined as 30 mg/L. Further, in the data set on bacterial mixed culture, the “Effect after 24 h 10” value is on record as “-”, the “Effect after 24 h 30” value is recorded as “-” and the “Effect after 24 h 60” value was “-”.
With “[(n-C4H9)3P n-G14H29]^+SCN^- [Example 1]”, the “minimal inhibiting concentration A” value in the data set with Bacillus subtilis amounted to 10 mg/L. In the data set on Serratia marcescens, the “minimal inhibiting concentration B” value stood at 30 mg/L. Moreover, the “minimal inhibiting concentration C” value with Enterobacter aerogenes was 10 mg/L. The “minimal inhibiting concentration D” value with Alcaligenes dentrificans is 10 mg/L. Also, in the data set with Proteus vulgaris, the “minimal inhibiting concentration E” value was determined as 10 mg/L. The “minimal inhibiting concentration F” value in the data set on Pseudomonas fluorescens came to 30 mg/L. Besides, in the data set on bacterial mixed culture, the “Effect after 24 h 10” value is “-”, the “Effect after 24 h 30” value is on record as “-”, the “Effect after 24 h 60” value is “-” and the “Effect after 24 h 100 mg/l” value was “-”.

The record behind these values is patent publication EP0549006A2, “Ammonium and phosphonium salts and their use as biocides” (FMC CORPORATION (UK) LIMITED, priority 1991, dated 1993).
